In PMC11591096, “Hit Identification and Functional Validation of Novel Dual Inhibitors of HDAC8 and Tubulin Identified by Combining Docking and Molecular Dynamics Simulations” (Antioxidants, 2024):

Target: T1, HDAC8 (Homo sapiens, UniProt Q9BY41)
T1 construct: purchased enzyme (VinciBiochem)
T1 sequence (Q9BY41 1-377): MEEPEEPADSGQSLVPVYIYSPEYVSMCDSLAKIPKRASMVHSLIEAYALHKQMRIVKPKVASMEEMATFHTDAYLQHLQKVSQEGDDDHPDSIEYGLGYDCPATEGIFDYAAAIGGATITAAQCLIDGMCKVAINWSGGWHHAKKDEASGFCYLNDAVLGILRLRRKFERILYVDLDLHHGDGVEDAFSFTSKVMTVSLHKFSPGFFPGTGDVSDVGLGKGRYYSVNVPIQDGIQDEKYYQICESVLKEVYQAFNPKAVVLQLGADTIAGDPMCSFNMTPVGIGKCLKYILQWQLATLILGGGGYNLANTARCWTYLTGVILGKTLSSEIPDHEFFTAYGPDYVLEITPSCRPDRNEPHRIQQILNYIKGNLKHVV
Experiment: HDAC-Glo I/II bioluminogenic deacetylase assay
Format: biochemical
Settings: read-out: HDAC8IC50 (μM) ^a
Source text: HDAC-Glo I/II bioluminogenic deacetylase assay on HDAC8

`Cc1cc(OCC(=O)N2CCC(C(N)=O)CC2)c2c(C)c(Cc3ccccc3)c(=O)oc2c1` [CNP0217284] was tested. Which IC50 did it give?
The IC50 was greater than 300 µM.
